From patent US4783462A, “3(2H)pyridazinone, and anti-allergic agent containing it” (Nissan Chemical Industries Ltd., priority 1985, dated 1988)

How the values were obtained:
LTC4 = assay: Antagonism in isolated guinea-pig trachea, Test method (i) (Table 3, given as LTC4 antagonism); format: cell-based; conditions: Cavia porcellus, 5 min, test compound 10^-5 g/ml, given as LTC4 antagonisms
Protocol: (i) LTC4 and LTD4 antagonisms in guinea-pig trachea
Antagonisms for LTC4 and LTD4 were determined in isolated guinea-pig trachea prepared as spiral strip. Tracheal preparations were suspended under 1 g tension in 10 ml organ baths and they were incubated for 1 hr prior to use. Contractile responses to LTC4 (2×10^-8 g/ml) and LTD4 (2×10^-8 g/ml) were obtained after the maximal response to histamine (10^-4 M). Test compounds dissolved in 100% dimethyl sulfoxide were added to the organ baths (final concentration of 10^-5 g/ml or 10^-6 g/ml) 5 min prior to LTC4 and LTD4 addition, and then contractile responses to LTC4 and LTD4 were compared with those of control which was obtained from a paired trachea in the absence of test compounds. LTC4 - and LTD4 -induced contractions were expressed as a percentage of the maximal response to histamine. The antagonism was determined as follows:
(§1) Antagonism (%)=(1.0-% contraction in test/% contraction in […]

ddY strain male mice = assay: Acute toxicity test, Test method-(2), intraperitoneal; format: in vivo; conditions: 7 days
Protocol: The lethal ratio was determined in ddY strain male mice (4 weeks old) at 7 days after the intraperitoneal injection of test compounds.

LTD4 = LTD4 antagonism in isolated guinea-pig trachea with indomethacin, Test method (ii) (Table 4); format: cell-based; conditions: Cavia porcellus, 0.5 h, LTD4 2×10^-8 g/ml, test compound 10^-6 g/ml, 30 min prior, 5 μmol indomethacin
Protocol: (ii) LTD4 antagonism in guinea-pig trachea
Antagonism for LTD4 was determined in isolated guinea-pig trachea prepared as spiral strip. Tracheal preparations were suspended under 1 g tension in 10 ml organ baths containing 5 μmol of indomethacin and they were incuated for 1 hr prior to use. Contractile responses to LTD4 (2×10^-8 g/ml) were obtained after the maximal response to histamine (10^-4 M). Test compounds dissolved in 100% dimethyl sulfoxide were added to the organ baths (final concentration of 10^-6 g/ml) 30 min prior to LTD4 addition, and then contractile responses to LTD4 were compared with those of control which was obtained from a paired trachea in the absence of test compounds. LTD4 -induced contractions were expressed as a percentage of the maximal response to histamine. The antagonism was determined as follows:
as §1

SMILES	inhibition at 10 µg/mL (LTC4) [%]	other results
CCCc1cc(C#N)ccc1OCCCNc1cnn(C(C)(C)C)c(=O)c1Cl [Compound No. 1, 4-Chloro-5-[3-(2-n-propyl-4-cyanophenoxy)propylamino]-2-t-butyl-3(2H)pyridazinone]	49	Lethal ratio (Death number/Experimental number) (ddY strain male mice; 200 mg/kg intraperitoneal): 0/2; Lethal ratio (Death number/Experimental number) (ddY strain male mice; 400 mg/kg intraperitoneal): 0/1
CCOC(=O)c1ccc(OCCCNc2cnn(CC)c(=O)c2Cl)c(Cl)c1 [Compound No. 10]	46	Lethal ratio (Death number/Experimental number) (ddY strain male mice; 200 mg/kg intraperitoneal): 0/2; Lethal ratio (Death number/Experimental number) (ddY strain male mice; 400 mg/kg intraperitoneal): 0/1
COc1cccc(SCCCNc2cnn(C(C)(C)C)c(=O)c2Cl)c1 [Compound No. 14]	40	Lethal ratio (Death number/Experimental number) (ddY strain male mice; 200 mg/kg intraperitoneal): 0/2; Lethal ratio (Death number/Experimental number) (ddY strain male mice; 400 mg/kg intraperitoneal): 0/1
CCCc1cc(C(N)=O)ccc1OCCCNc1cnn(C(C)C)c(=O)c1Br [Compound No. 122]	–	inhibition at 1 µg/mL (LTD4): 94%
CCCCc1cc(C(=O)OC)ccc1OCCCNc1cnn(C(C)C)c(=O)c1Br [Compound No. 126]	–	inhibition at 1 µg/mL (LTD4): 90%
CCCc1cc(C#N)ccc1OCC(O)CNc1cnn(C(C)C)c(=O)c1Cl (centres unmarked) [Compound No. 145, 4-chloro-5-[3-(2-n-propyl-4-cyanophenoxy)-2-hydroxypropylamino]-2-i-propyl-3(2H)pyridazinone]	85	Lethal ratio (Death number/Experimental number) (ddY strain male mice; 200 mg/kg intraperitoneal): 0/2; Lethal ratio (Death number/Experimental number) (ddY strain male mice; 400 mg/kg intraperitoneal): 0/1
CCCCc1cc(C(N)=O)ccc1OCCCNc1cnn(CC)c(=O)c1Br [Compound No. 180, 4-bromo-5-[3-(2-n-butyl-4-carbamoylphenoxy)propylamino]-2-ethyl-3(2H) pyridazinone]	–	inhibition at 1 µg/mL (LTD4): 88%
CCCCc1cc(C#N)ccc1OCCCNc1cnn(CC)c(=O)c1Br [Compound No. 181, 4-Bromo-5-[3-(2-n-butyl-4-cyanophenoxy)propylamino]-2-ethyl-3(2H)pyridazinone]	–	inhibition at 1 µg/mL (LTD4): 70%
CCn1ncc(NCCCOc2ccc(C(=O)OC)cc2Cl)c(Cl)c1=O [compound 13]	53	Lethal ratio (Death number/Experimental number) (ddY strain male mice; 200 mg/kg intraperitoneal): 0/2; Lethal ratio (Death number/Experimental number) (ddY strain male mice; 400 mg/kg intraperitoneal): 0/1
CCCc1c(OCCCOc2cnn(CC)c(=O)c2Cl)ccc2c(=O)cc(C(=O)O)oc12 [compound 29]	18	Lethal ratio (Death number/Experimental number) (ddY strain male mice; 200 mg/kg intraperitoneal): 0/2; Lethal ratio (Death number/Experimental number) (ddY strain male mice; 400 mg/kg intraperitoneal): 0/1
COc1cccc(OCCCOc2cnn(C(C)C)c(=O)c2Cl)c1 [compound 35]	72	Lethal ratio (Death number/Experimental number) (ddY strain male mice; 200 mg/kg intraperitoneal): 0/2; Lethal ratio (Death number/Experimental number) (ddY strain male mice; 400 mg/kg intraperitoneal): 0/1
COc1cccc(OCCOc2cnn(C(C)C)c(=O)c2Cl)c1 [compound 45]	27	Lethal ratio (Death number/Experimental number) (ddY strain male mice; 200 mg/kg intraperitoneal): 0/2; Lethal ratio (Death number/Experimental number) (ddY strain male mice; 400 mg/kg intraperitoneal): 0/1
CCCc1cc(C(=O)O)ccc1OCCCOc1cnn(C(C)C)c(=O)c1Cl [compound 86]	59	–
CCCc1cc(C#N)ccc1OCCCOc1cnn(C(C)C)c(=O)c1Cl [compound 87]	60	–
COC(=O)c1ccc(OCCCNc2cnn(C(C)C)c(=O)c2Cl)c(C(C)C)c1 [compound 88]	97	–
CC(C)c1cc(C(=O)O)ccc1OCCCNc1cnn(C(C)C)c(=O)c1Cl [compound 89]	52	–
CCOc1cc(C(=O)OC)ccc1OCCCNc1cnn(C(C)C)c(=O)c1Cl [compound 90]	83	–
CCOc1cc(C(=O)O)ccc1OCCCNc1cnn(C(C)C)c(=O)c1Cl [compound 91]	14	–
CCc1cc(C=CC(=O)O)ccc1OCCCNc1cnn(C(C)C)c(=O)c1Cl [compound 95]	59	–
CCc1cc(C(=O)OC)ccc1OCCCNc1cnn(CC)c(=O)c1Cl [compound 96]	77	–
CCc1cc(C(=O)O)ccc1OCCCNc1cnn(C(C)C)c(=O)c1Cl [compound 97]	62	–
CCn1ncc(NCCCOc2ccc(C)cc2OC)c(Cl)c1=O [compound 99]	51	–
COc1cc(C)ccc1OCCCNc1cnn(C(C)C)c(=O)c1Cl [compound 100]	66	–
CCn1ncc(NCCCOc2ccc(C(=O)O)cc2C(C)C)c(Cl)c1=O [compound 104]	57	–
CCc1cc(OC)ccc1OCCCNc1cnn(CC)c(=O)c1Cl [compound 106]	93	–

SMILES	inhibition at 10 µg/mL (LTC4) [%]	other results
CCc1cc(OC)ccc1OCCCNc1cnn(C(C)C)c(=O)c1Cl [compound 107]	85	–
CCCCc1cc(C(=O)OC)ccc1OCCCNc1cnn(C(C)C)c(=O)c1Cl [compound 110]	77	–
CCCc1cc(C(=O)O)ccc1OCCCNc1cnn(CC)c(=O)c1Br [compound 119]	100	–
CCCc1cc(C(=O)OC)ccc1OCCCNc1cnn(C(C)C)c(=O)c1Br [compound 124]	–	inhibition at 1 µg/mL (LTD4): 92%
COc1cccc(OCC(O)COc2cnn(C(C)C)c(=O)c2Cl)c1 (centres unmarked) [compound 140]	41	–
CCOc1ccccc1OCC(O)COc1cnn(C(C)C)c(=O)c1Cl (centres unmarked) [compound 141]	54	–
CC(C)c1ccccc1OCC(O)COc1cnn(C(C)C)c(=O)c1Cl (centres unmarked) [compound 142]	69	Lethal ratio (Death number/Experimental number) (ddY strain male mice; 200 mg/kg intraperitoneal): 0/2; Lethal ratio (Death number/Experimental number) (ddY strain male mice; 400 mg/kg intraperitoneal): 0/1
CCCc1ccccc1OCC(O)CNc1cnn(C(C)C)c(=O)c1Cl (centres unmarked) [compound 144]	84	–
CCCc1cc(C(=O)O)ccc1OCC(O)CNc1cnn(C(C)C)c(=O)c1Cl (centres unmarked) [compound 146]	14	–
CCCc1cc(C(=O)OC)ccc1OCC(O)CNc1cnn(C(C)C)c(=O)c1Cl (centres unmarked) [compound 147]	66	–
CCCc1cc(C(N)=O)ccc1OCC(O)CNc1cnn(C(C)C)c(=O)c1Cl (centres unmarked) [compound 148]	17	–
CCCc1cc(C#N)ccc1OCC(=O)CNc1cnn(C(C)C)c(=O)c1Cl [compound 149]	81	–
CCn1ncc(NCC(O)COS(=O)(=O)c2ccc(C)cc2)c(Cl)c1=O (centres unmarked) [compound 150]	16	–
CC(C)n1ncc(NCC(O)COc2ccccc2Cl)c(Cl)c1=O (centres unmarked) [compound 151]	47	–
CCCc1cc(OC)ccc1OCC(O)CNc1cnn(CC)c(=O)c1Cl (centres unmarked) [compound 152]	60	–
CCCc1cc(C(=O)OC)ccc1SCC(=O)CNc1cnn(C(C)C)c(=O)c1Cl [compound 156]	56	–
CCn1ncc(NCC(O)COc2ccccc2Cl)c(Cl)c1=O (centres unmarked) [compound 159]	44	–
CCCc1cc(OC)ccc1OCC(O)CNc1cnn(C(C)C)c(=O)c1Cl (centres unmarked) [compound 160]	70	–
CCCc1cc(C(=O)O)ccc1OCC(CN(C)c1cnn(C(C)C)c(=O)c1Cl)OC (centres unmarked) [compound 165]	33	–
COC(COc1ccc(C(=O)C(C)CC(=O)O)cc1)CN(C)c1cnn(C(C)C)c(=O)c1Cl (centres unmarked) [compound 168]	21	–
CC(C)c1ccccc1OCC(O)COc1cnn(C(C)C)c(=O)c1 (centres unmarked) [compound 169]	50	–
COc1ccc(NCC(O)COc2cnn(C(C)C)c(=O)c2Cl)cc1OC (centres unmarked) [compound 170]	17	–
CCCc1cc(C#N)ccc1OCC(=O)COc1cnn(C(C)C)c(=O)c1Cl [compound 173]	35	–
CCCc1cc(C(=O)OC)ccc1OCC(O)COc1cnn(C(C)C)c(=O)c1Cl (centres unmarked) [compound 174]	78	–
CCCc1cc(C(=O)OC)ccc1OCC(COc1cnn(C(C)C)c(=O)c1Cl)OC (centres unmarked) [compound 175]	55	–
